# Starred links: 1 amine or outer side, 2 acyl side, 3 side chain; linkers in the order of their positions; H or OH if unused. Residues, ends and D or L forms follow the SMILES beside them. Groups on a side chain read outwards from the residue. *: point of attachment. γGlu = O=C(O)[C@H](CCC(=O)[*:2])N[*:1]; Palmitoyl = CCCCCCCCCCCCCCCC(=O)*
# Molecular target: T1, Neuromedin U receptor 2 (NMUR2) (Homo sapiens, UniProt Q9GZQ4)
# T1 construct: expressed in transfected cells; host or cells: HEK293 cells, transient calcium phosphate transfection; the empty-vector control is pcDNA3
# Experiment: Functional assay (IP3 SPA-ysi assay) in HEK293 cells transfected with NMUR2
# Assay type: cell-based
# Details: HEK293 cells transiently transfected with NMUR2; head says cAMP, method describes IP3 SPA readout
# Procedure: All compounds were dissolved in dimethyl sulfoxide (DMSO), and then water was added (total DMSO conc. was 80%). The stock concentration was 1 mM for all the compounds. Stocks were alliquoted and frozen -20°C.
# The day before each assay a new standard row was prepared by dilution of the stock solution in assay buffer (1 mM acetic acid + 0.1% bovine serum albumin (BSA)). The following concentrations were prepared (depending on the ligand potency): 10^-5, 10^-6, 10^-7, 10^-7.5, 10^-8, 10^-8.5, 10^-9, 10^-10, 10^-11, 10^-12 M.
# Cell cultures: The HEK293 cells are grown in (DMEM31966 glutamax supplemented with 10% FBS (fetal bovine serum) and 1% penicillin G and streptomycin) and incubated at 37°C with 10% CO2 in a humidified atmosphere. The cells were split as follows. HEK293 cells approximately 80% confluent was used. The cells were removed from the bottom of the bottle by removing the media (DMEM31966 glutamax supplemented with 10% FBS and 1% penicillin G and streptomycin), rinsed with 5 mL phosphate buffered saline (PBS) and shaken gently. The PBS was removed and cells were released from the bottom with trypsin (1-2 mL) and incubated for 2-3 min. The flasks were then turned gently to ensure complete release of the cells from the bottom. Then media was added to the cells, (5-8 mL was used to rinse the cells of the bottom, this process was repeated approximately 4 times using the same media). Cell suspension was then transferred to a new bottle (approximately 4 × 10^6 cells per 175 cm^2 flask) and 20 mL media was added. Cells were incubated at 37°C with 10% CO2 in a humidified atmosphere.
# Transfection of cells: HEK293 cells were seeded out at the density of 8 × 10^6 cells per 175 cm^2 flask 1 day prior to the transfection. Before transfection of cells, the culture medium was aspirated and half of the standard volume was added. 40 µg receptor-containing plasmid (Neuromedin U receptor 1 (NMUR1) or Neuromedin U receptor 2 (NMUR2)) or "empty" vector plasmid (pcDNA3), as a negative control, was mixed with 60 µL […] CaCl2 and Tris-EDTA (TE) buffer (10 mM tris(hydroxymethyl)aminomethane hydrochloride (Tris HCl), 1 mM ethylenedinitrilotetraacetic acid (EDTA), pH 7.5) to a total volume of 480 µL. The mixture was added drop-wise to another tube containing 480 µL 2 × HEPES buffered saline (HBS buffer) (280 mM NaCl, 50 mM 4-(2-Hydroxyethyl)piperazine-1-ethanesulfonic acid (HEPES), 1.5 mM NaHPO4, pH 7.2) and left for 45 min at room temperature for DNA precipitation. Afterwards, the precipitate was added carefully to the cells and cells were incubated for 5 hours at normal culture conditions. The transfection was stopped by change of the DNA-containing medium with 20 mL of fresh cell culture medium.
# Seeding of the cells in 96 well plates: One day after transfection, cells were harvested using trypsin as described above. The cells were seeded in a poly-D-lysine coated clear 96 well plate. 100 µL cell suspension 350.000 cells/mL was added. 3H-myo-inositol (5µL/mL) was added to each well yielding a concentration of 35000 cells/well. The cells were incubated overnight before assay procedure the following day.
# IP3 SPA-ysi assay: The media was removed and the plates were washed with 200 µL of Hank's balanced salt solution (HBSS) (Gibco, Life Technologies). 100 µL of HBSS/10 mM LiCl was added and the plates were incubated 15 min at 37°C. 5 µL ligand was added to each well and the plate was incubated at 37°C for 70-90 min (incubation time was approximately 1 h and 16 min for all plates). The plates were placed on ice and 50 µL formic acid (10 mM) was added to each well. The plates was left on ice for at least 30 min. 20 µL was then transferred to a white 96 well plate and 80 µL yttrium silicate (YSi) SPA-beads RPNQ0010 (Perkin Elmer) solution (0.0125 g/mL) is added to each well. The plates were sealed and shaken on high speed for 30 min, then centrifuged for 5 min at 1500 rpm and counted with 8 hours delay in the top counter. […]
# T1 sequence (Q9GZQ4 whole entry): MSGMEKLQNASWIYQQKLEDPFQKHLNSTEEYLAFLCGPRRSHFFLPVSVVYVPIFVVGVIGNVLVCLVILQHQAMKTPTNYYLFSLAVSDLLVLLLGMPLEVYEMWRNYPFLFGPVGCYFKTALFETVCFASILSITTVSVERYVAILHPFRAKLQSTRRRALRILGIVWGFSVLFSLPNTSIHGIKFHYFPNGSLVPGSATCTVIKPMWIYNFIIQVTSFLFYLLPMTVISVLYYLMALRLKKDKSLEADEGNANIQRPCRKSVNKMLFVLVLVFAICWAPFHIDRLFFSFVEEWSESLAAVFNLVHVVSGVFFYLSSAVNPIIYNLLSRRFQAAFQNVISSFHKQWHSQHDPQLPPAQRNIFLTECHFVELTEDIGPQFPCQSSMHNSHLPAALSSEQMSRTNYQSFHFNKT
row,EC50 [nM],Compound
1,162,CCCCCCCCCCCCCCCC(=O)N[C@@H](CCC(=O)NCCCC[C@H](NC(=O)[C@H](CCC(N)=O)NC(=O)[C@H](CO)NC(=O)[C@H](C)NC(=O)[C@H](Cc1ccccc1)NC(=O)[C@@H]1CCCN1C(=O)[C@H](CO)NC(=O)[C@H](CCC(N)=O)NC(=O)[C@H](Cc1ccccc1)NC(=O)[C@H](CCC(=O)O)NC(=O)[C@H](CCC(=O)O)NC(=O)[C@H](CC(=O)O)NC(=O)[C@@H](NC(=O)[C@H](CCCNC(=N)N)NC(=O)[C@@H](N)Cc1ccccc1)C(C)C)C(=O)N[C@@H](CCCNC(=N)N)C(=O)NCC(=O)N[C@@H](Cc1ccc(O)cc1)C(=O)N[C@@H](Cc1ccccc1)C(=O)N[C@@H](CC(C)C)C(=O)N[C@@H](Cc1ccccc1)C(=O)N[C@@H](CCCNC(=N)N)C(=O)N1CCC[C@H]1C(=O)N[C@@H](CCCNC(=N)N)C(=O)N[C@@H](CC(N)=O)C(N)=O)C(=O)O [SEQ ID NO 5] (H-FRVDEEFQSPFASQK([γGlu-Palmitoyl])RGYFLFRPRN-NH2)
2,155,CCCCCCCCCCCCCCCC(=O)N[C@@H](CCC(=O)NCCCC[C@H](NC(=O)[C@H](C)NC(=O)[C@H](Cc1ccccc1)NC(=O)[C@@H]1CCCN1C(=O)[C@H](CO)NC(=O)[C@H](CCC(N)=O)NC(=O)[C@H](Cc1ccccc1)NC(=O)[C@H](CCC(=O)O)NC(=O)[C@H](CCC(=O)O)NC(=O)[C@H](CC(=O)O)NC(=O)[C@@H](NC(=O)[C@H](CCCNC(=N)N)NC(=O)[C@@H](N)Cc1ccccc1)C(C)C)C(=O)N[C@@H](CCC(N)=O)C(=O)N[C@@H](CO)C(=O)N[C@@H](CCCNC(=N)N)C(=O)NCC(=O)N[C@@H](Cc1ccc(O)cc1)C(=O)N[C@@H](Cc1ccccc1)C(=O)N[C@@H](CC(C)C)C(=O)N[C@@H](Cc1ccccc1)C(=O)N[C@@H](CCCNC(=N)N)C(=O)N1CCC[C@H]1C(=O)N[C@@H](CCCNC(=N)N)C(=O)N[C@@H](CC(N)=O)C(N)=O)C(=O)O [SEQ ID NO 8] (H-FRVDEEFQSPFAK([γGlu-Palmitoyl])QSRGYFLFRPRN-NH2)
3,52.8,CCCCCCCCCCCCCCCC(=O)N[C@@H](CCC(=O)NCCCC[C@H](NC(=O)[C@H](CCC(=O)O)NC(=O)[C@H](CC(=O)O)NC(=O)[C@@H](NC(=O)[C@H](CCCNC(=N)N)NC(=O)[C@@H](N)Cc1ccccc1)C(C)C)C(=O)N[C@@H](Cc1ccccc1)C(=O)N[C@@H](CCC(N)=O)C(=O)N[C@@H](CO)C(=O)N1CCC[C@H]1C(=O)N[C@@H](Cc1ccccc1)C(=O)N[C@@H](C)C(=O)N[C@@H](CO)C(=O)N[C@@H](CCC(N)=O)C(=O)N[C@@H](CO)C(=O)N[C@@H](CCCNC(=N)N)C(=O)NCC(=O)N[C@@H](Cc1ccc(O)cc1)C(=O)N[C@@H](Cc1ccccc1)C(=O)N[C@@H](CC(C)C)C(=O)N[C@@H](Cc1ccccc1)C(=O)N[C@@H](CCCNC(=N)N)C(=O)N1CCC[C@H]1C(=O)N[C@@H](CCCNC(=N)N)C(=O)N[C@@H](CC(N)=O)C(N)=O)C(=O)O [SEQ ID NO 14] (H-FRVDEK([γGlu-Palmitoyl])FQSPFASQSRGYFLFRPRN-NH2)
4,50.5,CCCCCCCCCCCCCCCC(=O)N[C@@H](CCC(=O)NCCCC[C@H](NC(=O)[C@@H](NC(=O)[C@H](CCCNC(=N)N)NC(=O)[C@@H](N)Cc1ccccc1)C(C)C)C(=O)N[C@@H](CCC(=O)O)C(=O)N[C@@H](CCC(=O)O)C(=O)N[C@@H](Cc1ccccc1)C(=O)N[C@@H](CCC(N)=O)C(=O)N[C@@H](CO)C(=O)N1CCC[C@H]1C(=O)N[C@@H](Cc1ccccc1)C(=O)N[C@@H](C)C(=O)N[C@@H](CO)C(=O)N[C@@H](CCC(N)=O)C(=O)N[C@@H](CO)C(=O)N[C@@H](CCCNC(=N)N)C(=O)NCC(=O)N[C@@H](Cc1ccc(O)cc1)C(=O)N[C@@H](Cc1ccccc1)C(=O)N[C@@H](CC(C)C)C(=O)N[C@@H](Cc1ccccc1)C(=O)N[C@@H](CCCNC(=N)N)C(=O)N1CCC[C@H]1C(=O)N[C@@H](CCCNC(=N)N)C(=O)N[C@@H](CC(N)=O)C(N)=O)C(=O)O [SEQ ID NO 17] (H-FRVK([γGlu-Palmitoyl])EEFQSPFASQSRGYFLFRPRN-NH2)

# — patent EP2842965A1, “Neuromedin U analogs comprising serum albumin binding amino acid residue” (Gubra ApS, priority 2013, dated 2015)
